{
  "source": "patent US9232796B2",
  "about": "“Herbicidal compositions comprising 4-amino-3-chloro-5-fluoro-6-(4-chloro-2-fluoro-3-methoxyphenyl) pyridine-2-carboxylic acid or a derivative thereof and acetyl-CoA carboxylase (ACCase) inhibitors” (DOW AGROSCIENCES LLC, priority 2012, dated 2016)",
  "key": {"SCPJU": {"tested_on": "SCPJU", "assay": "Example II in-water applied, greenhouse, transplanted paddy rice weeds", "assay_type": "in vivo, Schoenoplectus juncoides (Roxb.) Palla", "method": "Weed seeds or nutlets of the desired test plant species were planted in puddled soil (mud) prepared by mixing a shredded, non-sterilized mineral soil (50.5 percent silt, 25.5 percent clay, and 24 percent sand, with a pH of about 7.6 and an organic matter content of about 2.9 percent) and water at a 1:1 volumetric ratio. The prepared mud was dispensed in 365 mL aliquots into 16-ounce (oz.) non-perforated plastic pots with a surface area of 86.59 square centimeters (cm^2) leaving a headspace of 3 centimeters (cm) in each pot. Mud was allowed to dry overnight prior to planting or transplanting. Rice seeds were planted in Sun Gro MetroMix® 306 planting mixture, which typically has a pH of 6.0 to 6.8 and an organic matter content of about 30 percent, in plastic plug trays. Seedlings at the second or third leaf stage of growth were transplanted into 860 mL of mud contained in 32-oz. non-perforated plastic pots with a surface area of 86.59 cm^2 4 days prior to herbicide application. The paddy was created by filling the headspace of the pots with 2.5 to 3 cm of water. […] The plants were grown for 4-22 days in a greenhouse with an approximate 14 hr. photoperiod which was maintained at about 29° C. during the day and 26° C. during the night. Nutrients were added as Osmocote® (19:6:12, N:P:K+minor nutrients) at 2 g per 16-oz. pot and 4 g per 32-oz. pot. Water was added on a regular basis to maintain the paddy flood, and supplemental lighting was provided with overhead metal halide 1000-Watt lamps as necessary. The plants were employed for testing when they reached the first through fourth true leaf stage.\nTreatments consisted of the acid or esters of 4-amino-3-chloro-5-fluoro-6-(4-chloro-2-fluoro-3-methoxy-phenyl)pyridine-2-carboxylic acid (compound A) each formulated as an SC (suspension concentrate) and various herbicidal components alone and in combination.\nFor formulated compounds, a measured amount was placed in an individual 100 or 200 mL glass vial and was dissolved in a volume of 1.25% (v/v) Agri-Dex® crop oil concentrate to obtain application solutions.\nApplications were made by injecting with a pipetter appropriate amounts of the application solutions, individually and sequentially, into the aqueous layer of the paddy. Control plants were treated in the same manner with the solvent blank. Applications were made so that all treated plant material received the same concentrations of acetone and crop oil concentrate.\n(§1) The treated plants and control plants were placed in a greenhouse as described above and water was added as needed to maintain a paddy flood. After approximately 3 weeks the condition of the test plants as compared with that of the untreated plants was determined visually and scored on a scale of 0 to 100 percent where 0 corresponds to no injury or growth inhibition and 100 corresponds to complete kill.\n(§2) Colby's equation was used to determine the herbicidal effects expected from the mixtures (Colby, S. R. 1967. Calculation of the synergistic and antagonistic response of herbicide combinations. Weeds 15:20-22.).\nThe following equation was used to calculate the expected activity of mixtures containing two active ingredients, A and B: Expected=A+B−(A×B/100)"}, "ECHOR": {"tested_on": "ECHOR", "assay": "Example V (second) postemergence foliar-applied ternary mixtures, greenhouse, direct seeded rice weeds", "assay_type": "in vivo, Echinochloa oryzoides (Ard.) Fritsch", "method": "Seeds or nutlets of the desired test plant species were planted in a soil matrix prepared by mixing a sandy loam or loam soil (e.g., 32 percent silt, 23 percent clay, and 45 percent sand, with a pH of about 6.5 and an organic matter content of about 1.9 percent) and calcareous grit in an 80 to 20 ratio. The soil matrix was contained in plastic pots with a volume of 1 quart and a surface area of 83.6 square centimeters (cm^2). […] The plants were grown for 8-22 days in a greenhouse with an approximate 14 hr. photoperiod which was maintained at about 29° C. during the day and 26° C. during the night. Nutrients (Peters Excel® 15-5-15 5-Ca 2-Mg and iron chelate) were applied in the irrigation solution as needed and water was added on a regular basis. Supplemental lighting was provided with overhead metal halide 1000-Watt lamps as necessary. The plants were employed for testing when they reached the first through fourth true leaf stage.\nTreatments consisted of the benzyl ester of 4-amino-3-chloro-5-fluoro-6-(4-chloro-2-fluoro-3-methoxy-phenyl)pyridine-2-carboxylic acid (Compound A), formulated as an SC (suspension concentrate), an ACCase inhibitor, and a third herbicidal component, each applied alone and in ternary combination. Forms of compound A were applied on an acid equivalent basis.\nFor treatments comprised of formulated compounds, measured amounts of compounds were placed individually in 25 mL glass vials and diluted in a volume of 1.25% (v/v) Agri-Dex® crop oil concentrate to obtain 12× stock solutions. […] Application solutions were prepared by adding an appropriate amount of each stock solution (e.g., 1 mL) and diluted to the appropriate final concentrations with the addition of 9 mL of an aqueous mixture of 1.25% (v/v) crop oil concentrate so that the final spray solutions contained 1.25% (v/v) crop oil concentrate.\nAs required, additional water and/or 97:3 v/v acetone/DMSO was added to individual application solutions so that the final acetone and DMSO concentrations of the application solutions being compared were 8.1% and 0.25%, respectively.\nAll stock solutions and applications solutions were visually inspected for compound compatibility prior to application. Spray solutions were applied to the plant material with an overhead Mandel track sprayer equipped with a 8002E nozzles calibrated to deliver 187 L/ha over an application area of 0.503 m^2 at a spray height of 18 inches (46 cm) above average plant canopy height. Control plants were sprayed in the same manner with the solvent blank.\nas §1, with “watered by sub-irrigation” for “water was added as needed”, “prevent wash-off of the test compounds.” for “maintain a paddy flood.”, “weeks,” for “weeks”\nas §2\nThe following equation was used to calculate the expected activity of mixtures containing three active ingredients, A, B, and C: Expected=A+B+C−((A×B+A×C+B×C)/100)+(A×B×C/10000)"}},
  "note": "Values joined by “and” are separate entries in the source; they are usually repeats but may differ in a detail not shown here. Equal values may be shown once.",
  "data": [
    {"smiles": "COc1c(Cl)ccc(-c2nc(C(=O)OCc3ccccc3)c(Cl)c(N)c2F)c1F", "note": "[Compound A Benzyl Ester, benzyl ester of 4-amino-3-chloro-5-fluoro-6-(4-chloro-2-fluoro-3-methoxy-phenyl)pyridine-2-carboxylic acid]", "values": [
      {"measurement": "Visual Weed Control (%) - 21 DAA SCPJU Obs", "setting": "SCPJU; in-water, 4.38 gae/ha", "value": 70, "unit": "%"},
      {"measurement": "Visual Weed Control (%) - 22 DAA ECHOR Obs", "setting": "ECHOR; 8 gae/ha", "value": "13% and 25%"},
      {"measurement": "Visual Weed Control (%)- 22 DAA ECHOR Obs", "setting": "ECHOR; 8 gae/ha", "value": 13, "unit": "%"},
      {"measurement": "Visual Weed Control (%) - 22 DAA ECHOR Obs", "setting": "ECHOR; 16 gae/ha", "value": 35, "unit": "%"},
      {"measurement": "Visual Weed Control (%)- 22 DAA ECHOR Obs", "setting": "ECHOR; 16 gae/ha", "value": 40, "unit": "%"}
    ]},
    {"smiles": "C[C@@H](Oc1ccc(Oc2nc3ccc(Cl)cc3o2)cc1)C(=O)N(C)c1ccccc1F", "note": "[Metamifop, (2R)-2-[4-[(6-chloro-2-benzoxazolyl)oxy]phenoxy]-N-(2-fluorophenyl)-N-methylpropanamide]", "values": [
      {"measurement": "Visual Weed Control (%) - 21 DAA SCPJU Obs", "setting": "SCPJU; in-water, 75 gai/ha", "value": 0, "unit": "%"},
      {"measurement": "Visual Weed Control (%) - 21 DAA SCPJU Obs", "setting": "SCPJU; in-water, 150 gai/ha", "value": 0, "unit": "%"}
    ]},
    {"smiles": "CCC/C(=N\\OCC(C)Oc1ccc(Cl)cc1)C1=C(O)CC(C2CCCSC2)CC1=O", "note": "(stereo not drawn) [Profoxydim, 2-[1-[[2-(4-chlorophenoxy)propoxy]imino]butyl]-3-hydroxy-5-(tetrahydro-2H-thiopyran-3-yl)-2-cyclohexen-1-one, reference compound]", "values": [
      {"measurement": "Visual Weed Control (%) - 22 DAA SCPJU Obs", "setting": "SCPJU; in-water, 50 gai/ha", "value": 0, "unit": "%"},
      {"measurement": "Visual Weed Control (%) - 22 DAA SCPJU Obs", "setting": "SCPJU; in-water, 100 gai/ha", "value": 0, "unit": "%"},
      {"measurement": "Visual Weed Control (%) - 22 DAA ECHOR Obs", "setting": "ECHOR; 3.12 gai/ha", "value": 0, "unit": "%"}
    ]},
    {"smiles": "COc1c(Cl)ccc(-c2nc(C(=O)O)c(Cl)c(N)c2F)c1F", "note": "[Compound A Acid, 4-amino-3-chloro-6-(4-chloro-2-fluoro-3-methoxyphenyl)-5-fluoropyridine-2-carboxylic acid]", "values": [
      {"measurement": "Visual Weed Control (%) - 25 DAA SCPJU Obs", "setting": "SCPJU; 8.75 gae/ha in-water", "value": 65, "unit": "%"},
      {"measurement": "Visual Weed Control (%) - 25 DAA SCPJU Obs", "setting": "SCPJU; 17.5 gae/ha in-water", "value": 80, "unit": "%"},
      {"measurement": "Visual Weed Control (%) - 25 DAA SCPJU Obs", "setting": "SCPJU; 35 gae/ha in-water", "value": 95, "unit": "%"},
      {"measurement": "Visual Weed Control (%) - 20 DAA SCPJU Obs", "setting": "SCPJU; in-water, 8.75 gae/ha", "value": 70, "unit": "%"},
      {"measurement": "Visual Weed Control (%) - 21 DAA SCPJU Obs", "setting": "SCPJU; in-water, 8.75 gae/ha", "value": 65, "unit": "%"},
      {"measurement": "Visual Weed Control (%) - 22 DAA SCPJU Obs", "setting": "SCPJU; in-water, 16 gae/ha", "value": 70, "unit": "%"},
      {"measurement": "Visual Weed Control (%) - 20 DAA SCPJU Obs", "setting": "SCPJU; in-water, 17.5 gae/ha", "value": 95, "unit": "%"},
      {"measurement": "Visual Weed Control (%) - 21 DAA SCPJU Obs", "setting": "SCPJU; in-water, 17.5 gae/ha", "value": 90, "unit": "%"},
      {"measurement": "Visual Weed Control (%) - 20 DAA SCPJU Obs", "setting": "SCPJU; in-water, 35 gae/ha", "value": 95, "unit": "%"}
    ]},
    {"smiles": "CCCCOC(=O)[C@@H](C)Oc1ccc(Oc2ccc(C#N)cc2F)cc1", "note": "[Cyhalofop-butyl, butyl(2R)-2-[4-(4-cyano-2-fluorophenoxy)phenoxy]propanoate, reference compound]", "values": [
      {"measurement": "Visual Weed Control (%) - 25 DAA SCPJU Obs", "setting": "SCPJU; 90 gai/ha, in-water", "value": 0, "unit": "%"},
      {"measurement": "Visual Weed Control (%) - 25 DAA SCPJU Obs", "setting": "SCPJU; 180 gai/ha, in-water", "value": 0, "unit": "%"},
      {"measurement": "Visual Weed Control (%)- 22 DAA ECHOR Obs", "setting": "ECHOR; 17.5 gai/ha", "value": 0, "unit": "%"},
      {"measurement": "Visual Weed Control (%) - 22 DAA ECHOR Obs", "setting": "ECHOR; 35 gai/ha", "value": 15, "unit": "%"},
      {"measurement": "Visual Weed Control (%)- 22 DAA ECHOR Obs", "setting": "ECHOR; 35 gai/ha", "value": 15, "unit": "%"}
    ]}
  ]
}
